Data from patent US20230137932A1, “CYANO-PYRIMIDINE INHIBITORS OF EGFR/HER2” (Dana-Farber Cancer Institute, Inc., priority 2020, published 2023).
Like-named read-outs stand apart in the source and are kept apart here.

Key:
EGFR SVD = molecular target: T1, EGFR SVD (Homo sapiens, UniProt P00533, INS770SVD); experiment: Ba/F3 cell viability (MTS), EGFR SVD; type: cell-based; conditions: Ba/F3 cells, 72 hours
T1 construct: expressed in transfected cells; host or cells: Ba/F3 cells
Description: (§1) The IC50 values of the compounds provided herein were measured against kinases in Ba/F3 cells.
(§2) For assays with Ba/F3 cells, 3000 cells were seeded for per well in 96-well plates and were exposed to indicated compounds with a concentration of 3.3 to 10 μM for 72 hours.

EGFR ASV = molecular target: T2, EGFR ASV (Homo sapiens, UniProt P00533, INS769ASV); experiment: Ba/F3 cell viability (MTS), EGFR ASV; type: cell-based; conditions: Ba/F3 cells, 72 hours
T2 construct: expressed in transfected cells; host or cells: Ba/F3 cells
Description: as §1, §2

Ba/F3 parental = experiment: Ba/F3 cell viability (MTS), parental cells; type: cell-based, murine; conditions: Mus musculus, BaF3, Table 3, 72 hours
Description: as §1, §2

H = H (Homo sapiens, UniProt P00533, cells depend on it, form not given); experiment: Ba/F3 cell viability (MTS), H; type: cell-based; conditions: Table 5
VC = VC (Homo sapiens, UniProt P04626, DELINS776-776VC, cells depend on it); experiment: Ba/F3 cell viability (MTS), VC; type: cell-based; conditions: Table 5
Description: as §1, §2

WLV = WLV (Homo sapiens, UniProt P04626, DELINS774-774WLV, cells depend on it); experiment: Ba/F3 cell viability (MTS), WLV; type: cell-based; conditions: Table 5
Description: as §1, §2

exon19 = exon19 (Homo sapiens, UniProt P00533, cells depend on it, form not given); experiment: Ba/F3 cell viability (MTS), exon19; type: cell-based; conditions: Table 5
exon19, sequence (P00533 with tags, fused parts or gaps DEL746-750): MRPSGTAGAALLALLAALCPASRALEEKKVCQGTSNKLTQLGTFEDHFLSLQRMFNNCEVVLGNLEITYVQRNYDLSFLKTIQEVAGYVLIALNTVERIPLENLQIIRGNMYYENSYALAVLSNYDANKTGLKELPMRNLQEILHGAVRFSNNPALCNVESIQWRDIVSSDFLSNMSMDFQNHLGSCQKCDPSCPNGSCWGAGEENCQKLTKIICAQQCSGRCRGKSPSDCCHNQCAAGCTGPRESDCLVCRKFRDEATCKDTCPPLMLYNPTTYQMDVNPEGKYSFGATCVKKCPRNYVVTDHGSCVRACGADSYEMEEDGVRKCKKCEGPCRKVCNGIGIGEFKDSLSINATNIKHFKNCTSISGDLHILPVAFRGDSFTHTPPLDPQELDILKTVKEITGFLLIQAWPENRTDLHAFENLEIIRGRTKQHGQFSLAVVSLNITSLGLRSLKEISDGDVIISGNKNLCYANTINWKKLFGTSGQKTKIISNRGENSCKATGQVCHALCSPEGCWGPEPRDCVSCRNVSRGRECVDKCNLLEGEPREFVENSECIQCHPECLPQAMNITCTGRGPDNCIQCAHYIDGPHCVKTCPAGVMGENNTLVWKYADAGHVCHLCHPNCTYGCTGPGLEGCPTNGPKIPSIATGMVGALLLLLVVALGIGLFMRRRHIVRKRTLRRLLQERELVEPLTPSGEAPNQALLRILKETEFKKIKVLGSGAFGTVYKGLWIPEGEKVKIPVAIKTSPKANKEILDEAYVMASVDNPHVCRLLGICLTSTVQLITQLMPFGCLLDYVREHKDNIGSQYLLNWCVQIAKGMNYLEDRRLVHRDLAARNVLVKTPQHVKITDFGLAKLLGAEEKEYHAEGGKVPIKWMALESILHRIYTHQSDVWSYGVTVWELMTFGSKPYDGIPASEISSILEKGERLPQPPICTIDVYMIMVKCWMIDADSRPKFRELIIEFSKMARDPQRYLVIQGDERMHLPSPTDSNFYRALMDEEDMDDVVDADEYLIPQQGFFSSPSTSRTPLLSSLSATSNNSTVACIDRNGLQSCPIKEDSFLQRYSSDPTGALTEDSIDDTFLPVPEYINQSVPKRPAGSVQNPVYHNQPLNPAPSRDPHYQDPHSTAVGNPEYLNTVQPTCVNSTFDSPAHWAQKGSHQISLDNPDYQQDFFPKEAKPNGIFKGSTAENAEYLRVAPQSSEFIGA

H, sequence (P00533 with tags, fused parts or gaps DUP773-773): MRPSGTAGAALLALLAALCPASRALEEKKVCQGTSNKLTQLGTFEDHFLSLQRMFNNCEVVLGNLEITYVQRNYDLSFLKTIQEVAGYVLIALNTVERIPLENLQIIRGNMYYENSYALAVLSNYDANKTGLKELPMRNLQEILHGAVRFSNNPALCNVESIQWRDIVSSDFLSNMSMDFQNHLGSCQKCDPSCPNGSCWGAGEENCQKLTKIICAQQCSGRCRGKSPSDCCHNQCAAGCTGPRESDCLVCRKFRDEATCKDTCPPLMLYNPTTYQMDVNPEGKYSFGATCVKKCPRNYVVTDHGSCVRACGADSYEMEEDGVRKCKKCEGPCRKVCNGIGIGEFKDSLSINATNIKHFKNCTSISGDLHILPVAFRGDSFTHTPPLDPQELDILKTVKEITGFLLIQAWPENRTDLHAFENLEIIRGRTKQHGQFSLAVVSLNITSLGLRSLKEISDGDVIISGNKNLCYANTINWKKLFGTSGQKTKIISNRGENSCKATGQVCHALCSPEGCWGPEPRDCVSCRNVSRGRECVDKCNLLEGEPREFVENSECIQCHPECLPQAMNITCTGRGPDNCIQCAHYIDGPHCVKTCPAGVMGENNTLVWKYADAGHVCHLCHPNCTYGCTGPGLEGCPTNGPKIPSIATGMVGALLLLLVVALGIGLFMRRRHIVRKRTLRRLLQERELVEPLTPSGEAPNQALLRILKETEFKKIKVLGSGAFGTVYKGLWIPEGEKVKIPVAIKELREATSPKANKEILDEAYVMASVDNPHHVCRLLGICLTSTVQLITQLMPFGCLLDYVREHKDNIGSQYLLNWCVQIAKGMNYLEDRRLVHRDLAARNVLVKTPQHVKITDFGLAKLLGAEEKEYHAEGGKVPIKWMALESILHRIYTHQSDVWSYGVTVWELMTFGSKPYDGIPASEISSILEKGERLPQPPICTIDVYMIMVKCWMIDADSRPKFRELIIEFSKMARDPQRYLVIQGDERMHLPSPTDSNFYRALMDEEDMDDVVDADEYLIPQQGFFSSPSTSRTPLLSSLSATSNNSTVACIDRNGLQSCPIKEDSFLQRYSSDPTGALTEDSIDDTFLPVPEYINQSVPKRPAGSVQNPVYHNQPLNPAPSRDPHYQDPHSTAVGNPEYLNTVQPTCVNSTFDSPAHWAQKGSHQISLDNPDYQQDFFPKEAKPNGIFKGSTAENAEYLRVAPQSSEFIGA
T2 sequence (P00533 with tags, fused parts or gaps INS769ASV): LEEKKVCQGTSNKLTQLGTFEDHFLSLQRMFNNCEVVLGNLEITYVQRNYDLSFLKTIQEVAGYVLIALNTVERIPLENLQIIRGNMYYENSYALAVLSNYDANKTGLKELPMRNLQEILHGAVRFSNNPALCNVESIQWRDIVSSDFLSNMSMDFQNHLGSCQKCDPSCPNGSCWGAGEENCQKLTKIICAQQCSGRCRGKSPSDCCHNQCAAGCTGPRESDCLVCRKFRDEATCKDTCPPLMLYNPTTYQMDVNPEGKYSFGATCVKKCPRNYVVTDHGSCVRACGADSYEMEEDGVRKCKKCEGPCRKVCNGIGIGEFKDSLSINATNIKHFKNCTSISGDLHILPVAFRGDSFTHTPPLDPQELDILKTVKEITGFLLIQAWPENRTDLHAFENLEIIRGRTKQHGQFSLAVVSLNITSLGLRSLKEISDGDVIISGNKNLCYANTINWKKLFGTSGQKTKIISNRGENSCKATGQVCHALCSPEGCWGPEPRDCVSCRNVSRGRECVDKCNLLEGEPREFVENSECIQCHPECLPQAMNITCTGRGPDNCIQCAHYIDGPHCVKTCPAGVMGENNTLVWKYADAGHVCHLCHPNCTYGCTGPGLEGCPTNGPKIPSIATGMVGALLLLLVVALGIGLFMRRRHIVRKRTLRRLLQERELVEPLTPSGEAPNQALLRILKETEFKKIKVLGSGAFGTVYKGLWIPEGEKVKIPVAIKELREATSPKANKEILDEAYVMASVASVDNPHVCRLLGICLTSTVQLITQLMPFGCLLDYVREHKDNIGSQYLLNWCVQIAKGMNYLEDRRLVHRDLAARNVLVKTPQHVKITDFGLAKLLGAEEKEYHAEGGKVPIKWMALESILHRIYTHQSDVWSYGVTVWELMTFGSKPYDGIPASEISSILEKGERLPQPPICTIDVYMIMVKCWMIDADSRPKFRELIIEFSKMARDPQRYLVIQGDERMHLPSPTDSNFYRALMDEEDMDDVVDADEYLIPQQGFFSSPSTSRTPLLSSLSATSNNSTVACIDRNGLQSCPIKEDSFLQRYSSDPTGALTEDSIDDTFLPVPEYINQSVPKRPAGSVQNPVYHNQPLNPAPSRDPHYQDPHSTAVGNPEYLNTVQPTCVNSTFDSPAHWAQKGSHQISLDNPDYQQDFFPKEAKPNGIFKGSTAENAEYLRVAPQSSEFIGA
T1 sequence (P00533 with tags, fused parts or gaps INS770SVD): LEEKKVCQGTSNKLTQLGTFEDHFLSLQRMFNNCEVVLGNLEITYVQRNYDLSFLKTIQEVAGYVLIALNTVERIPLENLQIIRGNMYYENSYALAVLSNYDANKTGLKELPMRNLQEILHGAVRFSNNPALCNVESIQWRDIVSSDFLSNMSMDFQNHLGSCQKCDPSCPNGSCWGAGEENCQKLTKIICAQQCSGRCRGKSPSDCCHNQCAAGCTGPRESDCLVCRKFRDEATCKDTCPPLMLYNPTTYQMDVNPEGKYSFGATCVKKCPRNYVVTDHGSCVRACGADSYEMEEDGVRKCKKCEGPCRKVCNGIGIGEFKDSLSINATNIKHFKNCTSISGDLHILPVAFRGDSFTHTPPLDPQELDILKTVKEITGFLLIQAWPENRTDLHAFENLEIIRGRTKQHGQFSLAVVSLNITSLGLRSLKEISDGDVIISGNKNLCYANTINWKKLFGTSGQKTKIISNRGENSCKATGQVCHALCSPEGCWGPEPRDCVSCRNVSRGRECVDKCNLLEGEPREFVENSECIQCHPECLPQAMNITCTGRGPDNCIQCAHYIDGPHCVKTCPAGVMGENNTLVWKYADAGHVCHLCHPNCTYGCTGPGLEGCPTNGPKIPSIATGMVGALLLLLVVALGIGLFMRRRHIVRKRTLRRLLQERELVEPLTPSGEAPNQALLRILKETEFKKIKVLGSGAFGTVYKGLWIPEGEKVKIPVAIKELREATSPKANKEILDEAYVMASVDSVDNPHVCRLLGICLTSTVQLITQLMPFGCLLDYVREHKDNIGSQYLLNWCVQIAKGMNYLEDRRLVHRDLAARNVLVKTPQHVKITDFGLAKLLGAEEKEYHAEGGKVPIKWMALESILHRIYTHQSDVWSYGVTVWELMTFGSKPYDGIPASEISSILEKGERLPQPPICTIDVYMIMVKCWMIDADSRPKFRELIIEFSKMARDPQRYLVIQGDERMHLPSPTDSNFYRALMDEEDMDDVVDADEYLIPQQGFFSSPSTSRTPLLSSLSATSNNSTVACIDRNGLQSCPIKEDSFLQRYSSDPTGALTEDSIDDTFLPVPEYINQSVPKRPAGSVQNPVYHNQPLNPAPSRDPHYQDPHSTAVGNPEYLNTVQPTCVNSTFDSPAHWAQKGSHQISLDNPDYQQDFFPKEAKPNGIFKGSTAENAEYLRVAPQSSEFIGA

C=CC(=O)Nc1cc(Nc2ncc(C#N)c(NC34CC(C3)C4)n2)c(OC)cc1N(C)CCN(C)C [Compound 013, N-(5-((4-(bicyclo[1.1.1]pentan-1-ylamino)-5-cyanopyrimidin-2-yl)amino)-2-((2-(dimethylamino)ethyl)(methyl)amino)-4-methoxyphenyl)acrylamide]
IC50 (EGFR SVD; Table 2, read-out: Ba/F3 IC50 SVD): 6.1 nM | IC50 (EGFR SVD; Table 4, read-out: EGFR Ba/F3 SVD): 44.7 nM | IC50 (EGFR ASV; Table 2, read-out: Ba/F3 IC50 ASV): 5.11 nM | IC50 (EGFR ASV; Table 4, read-out: EGFR Ba/F3 ASV): 19.3 nM | IC50 (Ba/F3 parental): 4580 nM

C=CC(=O)Nc1cc(Nc2ncc(C#N)c(Nc3cccc(C)c3)n2)c(OC)cc1N(C)CCN(C)C [Compound 014, N-(5-((5-cyano-4-(m-tolylamino)pyrimidin-2-yl)amino)-2-((2-(dimethyl-amino)ethyl)(methyl)amino)-4-methoxyphenyl)acrylamide]
IC50 (Ba/F3 parental): 7380 nM

C=CC(=O)Nc1cc(Nc2ncc(C#N)c(NC34CC(C(F)F)(C3)C4)n2)c(OC)cc1N(C)CCN(C)C [Compound 015, N-(5-(5-cyano-4-(3-(difluoromethyl)bicycle[1.1.1]pentan-1-ylamino)-pyrimidin-2-ylamino)-2-((2-(dimethylamino)ethyl)(methyl)amino)-4-methoxyphenyl)-acrylamide]
IC50 (Ba/F3 parental): 6260 nM

C=CC(=O)Nc1cc(Nc2ncc(C#N)c(NC3C(C)C4CCC3C4(C)C)n2)c(OC)cc1N(C)CCN(C)C (stereo not shown) [Compound 016, N-(5-((5-cyano-4-((3,7,7-trimethylbicyclo[2.2.1]heptan-2-yl)amino)-pyrimidin-2-yl)amino)-2-((2-(dimethylamino)ethyl)(methyl)amino)-4-methoxyphenyl)-acrylamide]
IC50 (Ba/F3 parental): 4340 nM

C=CC(=O)Nc1cc(Nc2nccc(NC34CC(C3)C4)n2)c(OC)cc1N(C)CCN(C)C [Compound 017, N-(5-((4-(bicyclo[1.1.1]pentan-1-ylamino)pyrimidin-2-yl)amino)-2-((2-(dimethylamino)ethyl)(methyl)amino)-4-methoxyphenyl)acrylamide]
IC50 (Ba/F3 parental): 2300 nM

C=CC(=O)Nc1cc(Nc2ncc(OC)c(NC34CC(C3)C4)n2)c(OC)cc1N(C)CCN(C)C [Compound 018, N-(5-((4-(bicyclo[1.1.1]pentan-1-ylamino)-5-methoxypyrimidin-2-yl)amino)-2-((2-(dimethylamino)ethyl)(methyl)amino)-4-methoxyphenyl)acrylamide]
IC50 (Ba/F3 parental): 9220 nM

C=CC(=O)Nc1cc(Nc2ncc(C3CC3)c(NC34CC(C3)C4)n2)c(OC)cc1N(C)CCN(C)C [Compound 019, N-(5-((4-(bicyclo[1.1.1]pentan-1-ylamino)-5-cyclopropylpyrimidin-2-yl)amino)-2-((2-(dimethylamino)ethyl)(methyl)amino)-4-methoxyphenyl)acrylamide]
IC50 (Ba/F3 parental): 4250 nM

C=CC(=O)Nc1cc(Nc2ncc(C#N)c(NC3CCC3)n2)c(OC)cc1N(C)CCN(C)C [Compound 020]
IC50 (Ba/F3 parental): 5930 nM

C=CC(=O)Nc1cc(Nc2ncc(C#N)c(N3CCC3)n2)c(OC)cc1N(C)CCN(C)C [Compound 021, N-(5-(4-(azetidin-1-yl)-5-cyanopyrimidin-2-ylamino)-2-((2-(dimethyl-amino)ethyl)(methyl)amino)-4-methoxyphenyl)acrylamide]
IC50 (Ba/F3 parental): 6040 nM

C=CC(=O)Nc1cc(Nc2ncc(C#N)c(Nc3ccc(Oc4ccn5ccnc5c4)c(C)c3)n2)c(OC)cc1N(C)CCN(C)C [Compound 022]
GI50 (H): 28.5 nM | GI50 (VC): 9.56 nM | GI50 (WLV): 61.3 nM | GI50 (exon19): 0.948 nM

C=CC(=O)Nc1cc(Nc2nc(Nc3ccc(Oc4ccn5ccnc5c4)c(C)c3)ncc2C#N)c(OC)cc1N(C)CCN(C)C [Compound 027]
GI50 (H): 444 nM | GI50 (VC): 317 nM | GI50 (WLV): 461 nM | GI50 (exon19): 44.7 nM

CCC(=O)Nc1cc(Nc2ncc(C#N)c(NC34CC(C3)C4)n2)c(OC)cc1N(C)CCN(C)C [Compound 028, N-(5-((4-(bicyclo[1.1.1]pentan-1-ylamino)-5-cyanopyrimidin-2-yl)amino)-2-((2-(dimethylamino)ethyl)(methyl)amino)-4-methoxyphenyl)propionamide]
IC50 (Ba/F3 parental): 10500 nM

C=CC(=O)Nc1cc(Nc2ncc(C#N)c(Nc3ccc(Oc4ccn5ccnc5c4)c(C)c3)n2)c(OC)cc1N(C)C [Compound 029]
IC50 (Ba/F3 parental): 8720 nM

C=CC(=O)Nc1cc(Nc2ncc(C#N)c(Nc3ccc(Oc4ccn5ccnc5c4)c(C)c3)n2)c(OC)cc1N1CC(N(C)C)C1 [Compound 030]
IC50 (Ba/F3 parental): 9940 nM

C=CC(=O)Nc1cc(Nc2ncc(C#N)c(NC34CC(CN(C)C)(C3)C4)n2)c(OC)cc1N1CCOCC1 [Compound 031]
IC50 (Ba/F3 parental): 8050 nM
